This assay concerns B6C3F1 mice, intracerebral ependymoblastoma, median survival T/C. The assay is described as follows: NCI In Vivo Anticancer Drug Screen. Data for tumor model Ependymoblastoma (intracerebral) in B6C3F1 mice. The conditions noted are these: endpoint: median survival time, higher = longer survival. As to the method: The antitumor activity of compounds was measured in mice bearing transplantable tumors. Survival or tumor size were measured and the results are expressed as the measurement made in the treated group (T) divided by the measurement made in the vehicle treated control group (C). The tumor model used in this assay is Ependymoblastoma (intracerebral) in B6C3F1 mice

[1] abbreviates: dose: 20.0 mg/kg/injection, schedule: Q01DX005 (ip), vehicle: saline.
Where [2] appears, read: dose: 40.0 mg/kg/injection, schedule: Q01DX005 (ip), vehicle: saline.

Where “and” joins values, the source holds several entries; their conditions need not be identical. Identical values can stand only once. Inconclusive results and toxic doses are left out.

Regarding `O=C(NC1CCCCC1)OCc1c(COC(=O)NC2CCCCC2)c(-c2ccc(Cl)c(Cl)c2)n2c1CCC2`, the T/C was 99 % of control and 102 % of control (dose: 50.0 mg/kg/injection, schedule: Q01DX005 (ip), vehicle: saline with Tween-80); 92 % of control and 108 % of control (dose: 100.0 mg/kg/injection, schedule: Q01DX005 (ip), vehicle: saline with Tween-80); 104 % of control and 115 % of control (dose: 200.0 mg/kg/injection, schedule: Q01DX005 (ip), vehicle: saline with Tween-80); 115 % of control and 118 % of control (dose: 400.0 mg/kg/injection, schedule: Q01DX005 (ip), vehicle: saline with Tween-80); 106 % of control and 110 % of control (dose: 800.0 mg/kg/injection, schedule: Q01DX005 (ip), vehicle: saline with Tween-80).

On to `O=NN(CCCl)C(=O)NC1CCCN(Cc2ccccc2)C1` (stereo not drawn), for which the T/C was 178 % of control (dose: 50.0 mg/kg/injection, schedule: Q01DX001 (ip), vehicle: distilled water + Tween-80) and 223 % of control (dose: 100.0 mg/kg/injection, schedule: Q01DX001 (ip), vehicle: distilled water + Tween-80).

Regarding `O=c1ccc2ccccc2o1`, the T/C (dose: 12.5 mg/kg/injection, schedule: Q01DX005 (ip), vehicle: Klucel (hydroxypropylcellulose) (HPC)) is 100 % of control; the T/C (dose: 25.0 mg/kg/injection, schedule: Q01DX005 (ip), vehicle: Klucel (hydroxypropylcellulose) (HPC)) is 92 % of control; the T/C (dose: 45.0 mg/kg/injection, schedule: Q01DX005 (ip), vehicle: saline with Tween-80) was 103 % of control; the T/C (dose: 50.0 mg/kg/injection, schedule: Q01DX005 (ip), vehicle: Klucel (hydroxypropylcellulose) (HPC)) is 108 % of control; the T/C (dose: 90.0 mg/kg/injection, schedule: Q01DX005 (ip), vehicle: saline with Tween-80) is 98 % of control; the T/C (dose: 100.0 mg/kg/injection, schedule: Q01DX005 (ip), vehicle: Klucel (hydroxypropylcellulose) (HPC)) is 104 % of control.

For the compound `CCCCN(C)N=Nc1c(C(N)=O)n[nH]c1C`, the T/C (dose: 64.0 mg/kg/injection, schedule: Q01DX005 (ip), vehicle: saline with Tween-80) was 166 % of control.

In the case of `OC(C1CO1)C(O)C1CO1` (stereo not drawn), the T/C is 112 % of control (dose: 0.25 mg/kg/injection, schedule: Q01DX005 (ip), vehicle: saline); 115 % of control (dose: 0.5 mg/kg/injection, schedule: Q01DX005 (ip), vehicle: water); 94 % of control and 121 % of control (dose: 1.0 mg/kg/injection, schedule: Q01DX001 (ip), vehicle: saline); 112 % of control (dose: 1.0 mg/kg/injection, schedule: Q01DX005 (ip), vehicle: water); 105 % of control (dose: 1.0 mg/kg/injection, schedule: Q#A X002 (ip), vehicle: water); 113 % of control (dose: 2.0 mg/kg/injection, schedule: Q01DX001 (ip), vehicle: saline). Further, the T/C (dose: 2.0 mg/kg/injection, schedule: Q01DX001 (ip), vehicle: water) is 105 % of control and 110 % of control and 118 % of control; the T/C (dose: 2.0 mg/kg/injection, schedule: Q01DX005 (ip), vehicle: water) is 124 % of control; the T/C (dose: 2.0 mg/kg/injection, schedule: Q#A X002 (ip), vehicle: water) was 112 % of control; the T/C (dose: 4.0 mg/kg/injection, schedule: Q01DX001 (ip), vehicle: saline) was 113 % of control; the T/C (dose: 4.0 mg/kg/injection, schedule: Q01DX001 (ip), vehicle: water) was 116 % of control and 117 % of control; the T/C (dose: 4.0 mg/kg/injection, schedule: Q01DX005 (ip), vehicle: water) was 181 % of control. The T/C is 113 % of control (dose: 8.0 mg/kg/injection, schedule: Q01DX001 (ip), vehicle: saline); 151 % of control (dose: 8.0 mg/kg/injection, schedule: Q01DX001 (ip), vehicle: water); 175 % of control (dose: 8.0 mg/kg/injection, schedule: Q#A X002 (ip), vehicle: water); 150 % of control and 166 % of control (dose: 16.0 mg/kg/injection, schedule: Q01DX001 (ip), vehicle: saline); 175 % of control (dose: 16.0 mg/kg/injection, schedule: Q01DX001 (ip), vehicle: water).

For `COc1ccc(C[C@H](N)C(=O)NC2C(CO)OC(n3cnc4c(N(C)C)ncnc43)C2O)cc1` (stereo partly drawn), the T/C was 101 % of control (dose: 8.0 mg/kg/injection, schedule: Q01DX005 (ip), vehicle: saline); 101 % of control (dose: 16.0 mg/kg/injection, schedule: Q01DX005 (ip), vehicle: saline); 103 % of control (dose: 32.0 mg/kg/injection, schedule: Q01DX005 (ip), vehicle: saline); 94 % of control (dose: 64.0 mg/kg/injection, schedule: Q01DX005 (ip), vehicle: saline); 102 % of control (dose: 128.0 mg/kg/injection, schedule: Q01DX005 (ip), vehicle: saline).

As for `O=C1NC(c2ccc(Cl)cc2)(c2ccc(Cl)cc2)C(=O)N1Cl`, the T/C is, setting by setting: (dose: 1.56 mg/kg/injection, schedule: Q01DX009 (ip), vehicle: saline with Tween-80) 102 % of control; (dose: 3.13 mg/kg/injection, schedule: Q01DX009 (ip), vehicle: saline with Tween-80) 105 % of control; (dose: 6.25 mg/kg/injection, schedule: Q01DX009 (ip), vehicle: saline with Tween-80) 102 % of control; (dose: 12.5 mg/kg/injection, schedule: Q01DX009 (ip), vehicle: saline with Tween-80) 101 % of control and 104 % of control; (dose: 25.0 mg/kg/injection, schedule: Q01DX009 (ip), vehicle: saline with Tween-80) 95 % of control and 99 % of control; (dose: 50.0 mg/kg/injection, schedule: Q01DX009 (ip), vehicle: saline with Tween-80) 101 % of control.

On to `NC(=O)c1ncn(C2OC(CO)C(O)C2O)n1` (stereo not drawn), for which the T/C was 99 % of control and 100 % of control under setting [1]; 98 % of control and 101 % of control under setting [2]; 92 % of control and 103 % of control (dose: 80.0 mg/kg/injection, schedule: Q01DX005 (ip), vehicle: saline); 104 % of control and 121 % of control (dose: 160.0 mg/kg/injection, schedule: Q01DX005 (ip), vehicle: saline); 97 % of control and 118 % of control (dose: 320.0 mg/kg/injection, schedule: Q01DX005 (ip), vehicle: saline).

`COc1ccc(C(=O)/C(Br)=C/C(=O)O)cc1`: the T/C reads like this: (dose: 10.0 mg/kg/injection, schedule: Q01DX005 (ip), vehicle: saline) 92 % of control and 104 % of control; under setting [1], 96 % of control and 103 % of control; under setting [2], 94 % of control and 104 % of control.

Consider `CC([NH-])C[NH-].[Cl][Pt+2][Cl]` (stereo not drawn), for which the T/C (dose: 2.0 mg/kg/injection, schedule: Q01DX005 (ip), vehicle: dextrose) is 94 % of control.

Turning to `CN(C)C=O`, the T/C runs as follows: (dose: 50.0 mg/kg/injection, schedule: Q01DX005 (ip), vehicle: saline) 92 % of control and 112 % of control; (dose: 100.0 mg/kg/injection, schedule: Q01DX005 (ip), vehicle: saline) 96 % of control and 98 % of control and 115 % of control; (dose: 200.0 mg/kg/injection, schedule: Q01DX005 (ip), vehicle: saline) 94 % of control and 99 % of control and 109 % of control; (dose: 400.0 mg/kg/injection, schedule: Q01DX005 (ip), vehicle: saline) 94 % of control and 99 % of control and 113 % of control; (dose: 800.0 mg/kg/injection, schedule: Q01DX005 (ip), vehicle: saline) 93 % of control and 102 % of control and 105 % of control; (dose: 1600.0 mg/kg/injection, schedule: Q01DX005 (ip), vehicle: saline) 93 % of control. In addition, where the note is “dose: 2400.0 mg/kg/injection, schedule: Q01DX005 (ip), vehicle: saline”, the T/C is 97 % of control.

For the origin of these results see PubChem BioAssay AID226 (DTP/NCI, 2004).
